Where a name gives a salt, the structure may show the parent alone.
What was measured:
[1] = system: full length SMN2 minigene mRNA (HEK293H cells stably transfected with the SMN2-A minigene construct); experiment: RT-qPCR assay for SMN2 minigene pre-mRNA splicing in cultured cells; type: cell-based; settings: Homo sapiens, HEK293-H, 24 hours, 7-point concentration curve, concentration giving 1.5-fold FL SMN2mini mRNA vs vehicle, read-out: EC1.5x minigene (EC1.5x concentration for production of full length SMN2 minigene mRNA)
Summary of the method: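 HEK293H cells stably carrying SMN2-A minigene were treated 24 h at 37 °C with a 7-point, 3.16-fold compound series, in duplicate. Minigene-specific exon 7–exon 8 mRNA measured by multiplex RT-qPCR with GAPDH normalisation; fold over vehicle by modified ΔΔCt, reported as EC1.5×.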

[2] = system: SMN protein in SMA patient fibroblast cells (GM03813); experiment: SMN protein assay (HTRF) in cultured cells; type: cell-based; settings: Homo sapiens, SMA Type 1 patient fibroblasts, 48 hours; for EC (1.5-fold): 7-point concentration curve, concentration giving 1.5 times SMN protein vs vehicle, read-out: EC1.5x SMN protein (EC1.5x concentration for SMN protein expression); for maximal fold induction: fold increase relative to vehicle control, read-out: Max. fold increase of SMN protein
Summary of the method: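 SMA patient fibroblasts (5,000 cells/well, DMEM-10% FBS) treated 48 h at 37 °C with 7-point, 3.16-fold dilutions, in triplicate. Lysates (RIPA) read overnight by HTRF with anti-SMN d2/cryptate at 665/620 nm. ΔF versus blank gives fold increase over vehicle, from which EC1.5× and maximum fold increase are derived.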

| SMILES | EC (1.5-fold) [1] [µM] | EC (1.5-fold) [2] [µM] | maximal fold induction [2] |
| --- | --- | --- | --- |
| Cc1cn2cc(NC(=O)c3ccc(N4CCNC(C)(C)C4)cc3F)ncc2n1 [Example 35, 4-(3,3-dimethylpiperazin-1-yl)-2-fluoro-N-(2-methylimidazo[1,2-a]pyrazin-6-yl)benzamide hydrochloride] | 0.0317 | 0.505 | 2.16 |
| CCc1nc(NC(=O)c2ccc(N3CCN4CCC[C@H]4C3)cc2F)cn2cc(C)nc12 [Example 16, 4-[(8aS)-3,4,6,7,8,8a-hexahydro-1H-pyrrolo[1,2-a]pyrazin-2-yl]-N-(8-ethyl-2-methylimidazo[1,2-a]pyrazin-6-yl)-2-fluorobenzamide] | 0.0314 | 0.237 | 1.72 |
| Cc1cn2cc(NC(=O)c3ccc(N4CCNC(C)C4)c(F)c3F)ncc2n1 (stereo not drawn) [Example 30, 2,3-difluoro-N-(2-methylimidazo[1,2-a]pyrazin-6-yl)-4-(3-methylpiperazin-1-yl)benzamide hydrochloride] | 0.165 | 0.603 | 1.82 |
| Cc1cn2cc(NC(=O)c3ccc(N4CCN5CCC[C@H]5C4)cc3F)ncc2n1 [Example 8, 4-[(8aS)-3,4,6,7,8,8a-hexahydro-1H-pyrrolo[1,2-a]pyrazin-2-yl]-2-fluoro-N-(2-methylimidazo[1,2-a]pyrazin-6-yl)benzamide] | 0.0407 | 0.351 | 1.77 |
